Source: PMC8457121, “From Kinase Inhibitors to Multitarget Ligands as Powerful Drug Leads for Alzheimer's Disease using Protein‐Templated Synthesis” (Angewandte Chemie (International Ed. in English), 2021)

Assays:
PAMPA-BBB test = assay type: in vitro ADME; conditions: PBS pH 7.4 with 5% DMSO
Method: dissolved in 250 µL of DMSO (Sigma-Aldrich). 25 µL of these compound stock
solutions were taken and 225 µL of DMSO and 4750 µL of PBS pH 7.4 buffer
compound concentration in the range of 0.2 to 1.1 mM. Compounds to be
µL of DMSO and 4750 µL of PBS pH 7.4 was carefully added to afford a final
compound concentration in the range of 0.2 to 1.1 mM. Solutions were filtered
using filter PDVF membrane units (diameter 30 mm, pore size 0.45 μm, Symta).
10 µL of each solution were taken and diluted 10-fold with PBS/DMSO (95/5) for
HPLC-MS analysis. The acceptor 96-well plate (Multiscreen®, catalog no.
MAMCS9610, Millipore) was filled with 180 µL of PBS/DMSO (95/5). The donor
96-well plate (Multiscreen® IP Sterile Plate PDVF membrane, pore size is 0.45
M, catalog no. MAIPS4510, Millipore) was coated with 4 µL 20 mg·mL-1 of
for 5 min and then 180 µL of each compound solution was added. Then the donor
plate was put on the acceptor plate and kept for 2.5 h at room temperature. After
incubation, samples were collected from the acceptor plate and diluted 10-fold
with PBS/DMSO (95/5) for HPLC-MS analysis and compared to HPLC-MS of
initial solutions. Absorbance peak of each compound was determined by MS
detection and was used to calculate the concentration of compounds and
Every sample was analysed in two independent
runs. HPLC-MS was performed using a HPLC-MS equipment from Thermo
Fisher coupled to a Finnigan TM LXQ TM detector. Each compound was
analysed using a Sunfire column C18, 3.5 μm (50 mm x 4.6 mm) and acetonitrile
and Milli-Q water (with 0.1% formic acid) as mobile phase. The standard gradient

BACE1 = BACE1 (Homo sapiens, UniProt P56817); experiment: In situ click chemistry with BACE1 as template (LC/MS-SIM); conditions: BACE1 0.5 μM, reagents 100 μM, 24 h, room temperature, sodium acetate pH 4.5
Method: confirmed by molecular weight. Control experiments in the absence of BACE1 were set up every time the reactions were performed. Experiment with the presence of BSA (1 mg mL−1) instead of the BACE1 enzyme was performed for […]
LRRK2 inhibition enzymatic assay. The LRRK2 inhibitors were evaluated by the ThermoFisher company under the following Adapta Assay. The assay itself can be divided into two phases: a kinase reaction phase, and an ADP detection phase. In the kinase reaction phase, all components required for the kinase reaction are added to the well, and the reaction is allowed to incubate for 60 minutes. After the reaction, a detection solution consisting of a europium labeled anti-ADP antibody, an Alexa Fluor™ 647 labeled ADP tracer, and EDTA (to stop the kinase reaction) is added to the assay well. ADP formed by the kinase reaction (in the absence of an inhibitor) will displace the Alexa Fluor 647 labeled ADP tracer from the antibody, resulting in a decrease in the TR-FRET signal. In the presence of an inhibitor, the amount of ADP formed by the kinase reaction is reduced, and the resulting intact antibodytracer interaction results in a high TR-FRET signal. ADP formation is determined by calculating the emission ratio from […]
The 2X LRRK2 / ERM (LRRKtide) mixture is prepared in 50 mM Tris pH 8.5, […]
Reaction consists of 3.75 - 70 ng LRRK2 and 200 μM ERM (LRRKtide) in 25 mM […]
NaN3. […]

SK-APP cells = experiment: Aβ40 and Aβ42 levels in SK-APP cells (sandwich ELISA); assay type: cell-based, human; conditions: 10 μM, 48 h treatment
Method: page 35: enzyme concentration (1 U/mL). Inhibitor screening at 10 μM. The mixture was incubated for 60 min at 25 °C under dark conditions and then stopped with 2.5 M sodium acetate. Fluorescence was measured with a FLUOstar Optima (BMG Labtechnologies GmbH, Offenburg, Germany) microplate reader at 545 nm excitation and 585 nm emission. Evaluation of BACE Inhibitors Kinetics. To evaluate the mechanism of BACE1 inhibition of the compounds, substrate-dependent kinetic experiments were performed. BACE activity were measured at five different concentrations substrate (1000 -62,5 μM) in the absence or presence of the select inhibitor at two different concentrations. The results are presented as double reciprocal Lineweaver-Burk plots (1/V vs 1/[S]) Figure S1. Cell culture and treatments. SK-N-MC cells stably expressing the human isoform APP695 (SK-APP cell line […]1) were generated by transfection of SK-N-MC cells with a pCDNA3-APP expression vector, and kindly provided by Dr. MJ Bullido. These cells were cultured in DMEM (Thermo Fisher) medium supplemented with 10% FBS (Thermo Fisher), 1 mM glutamine (Sigma- Aldrich), and 100 unit/ml penicillin (Lonza) and […] streptomycin (Lonza). Cell cultures were maintained in a 5% CO2, humidified atmosphere at 37 °C. SH-SY5Y cells were obtained from the American Type Culture Collection and grown in DMEM media (Gibco), supplemented with 10% foetal bovine serum, and 1% penicillin/streptomycin (Invitrogen). The cells were grown at 37 °C in a humidified 5% CO2 atmosphere. For the treatments, all the compounds were dissolved in dimethyl sulfoxide (DMSO, from Sigma) at an initial stock concentration of 10 mM. […] working solutions were obtained from the dilution of the stock solutions in DMEM media (DMSO control solutions were prepared similarly to the compounds). Okadaic acid (OA, Sigma-Aldrich) was dissolved in DMSO at an initial stock concentration of 60 μM and a 250X working solution was obtained from the dilution of the stock solution in DMEM. All the compounds (250x solutions) were added directly into the wells at the indicated final concentrations for 1 hour before the treatment with OA at a final concentration of 30 nM. DMSO was added at the appropriate concentration to the 34 page 36: control-untreated cells. The cells were maintained in the presence of the OA and the different compounds for 24h. Measurement of cell viability. Cell viability assays were carried out using a 3- […] (Sigma-Aldrich) in 96-well cell culture plates. All cells were then incubated with a 0.5 mg/ml MTT solution (Sigma-Aldrich) at 37 °C for 4 h and then with cell lysis […] The absorbance values were determined at 590 nm. Cell viability was expressed as a percent of OD of control cells, the value of which was defined as 100%. Cell viability in SH-SY5Y were carried out following the same procedure but seeding the cells in 24 well multiplates. Absorbance was measured using a Varioskan Flash multiplate reader (Thermo Scientific) at test 550 nm and reference 664 nm wave-lengths. Compound concentration for SK-APP line was 10 μM and for the SH-SY5Y was 1 and 5 μM. Immunoassays. Levels of Aβ40 and Aβ42 were quantified by sandwich ELISAs (Wako, Osaka, Japan) from cellular lysates and conditioned media collected. CNS penetration: in vitro PAMPA-BBB test. Prediction of the brain penetration was evaluated using a parallel artificial membrane permeability assay (PAMPA).1 Nine quality control compounds (mentioned below) of know BBB permeability were included in each experiment to validate the analysis set.2 Commercial drugs […] dissolved in 250 μL of DMSO (Sigma-Aldrich). 25 μL of these compound stock solutions were taken and 225 μL of DMSO and 4750 μL of PBS pH 7.4 buffer were added to reach 5% of DMSO concentration in the experiment and a final […] Compounds to be determined their ability to pass the brain barrier (0.5-1 mg) were dissolved in 250 μL of DMSO and 4750 μL of PBS pH 7.4 was carefully added to afford a final […]

LRRK2 = target: T1, LRRK2 (Homo sapiens, UniProt Q5S007); experiment: LRRK2 inhibition enzymatic assay (Adapta, ThermoFisher); assay type: biochemical
T1 construct: purchased ThermoFisher (assay run by the company)
T1 sequence (Q5S007 whole entry): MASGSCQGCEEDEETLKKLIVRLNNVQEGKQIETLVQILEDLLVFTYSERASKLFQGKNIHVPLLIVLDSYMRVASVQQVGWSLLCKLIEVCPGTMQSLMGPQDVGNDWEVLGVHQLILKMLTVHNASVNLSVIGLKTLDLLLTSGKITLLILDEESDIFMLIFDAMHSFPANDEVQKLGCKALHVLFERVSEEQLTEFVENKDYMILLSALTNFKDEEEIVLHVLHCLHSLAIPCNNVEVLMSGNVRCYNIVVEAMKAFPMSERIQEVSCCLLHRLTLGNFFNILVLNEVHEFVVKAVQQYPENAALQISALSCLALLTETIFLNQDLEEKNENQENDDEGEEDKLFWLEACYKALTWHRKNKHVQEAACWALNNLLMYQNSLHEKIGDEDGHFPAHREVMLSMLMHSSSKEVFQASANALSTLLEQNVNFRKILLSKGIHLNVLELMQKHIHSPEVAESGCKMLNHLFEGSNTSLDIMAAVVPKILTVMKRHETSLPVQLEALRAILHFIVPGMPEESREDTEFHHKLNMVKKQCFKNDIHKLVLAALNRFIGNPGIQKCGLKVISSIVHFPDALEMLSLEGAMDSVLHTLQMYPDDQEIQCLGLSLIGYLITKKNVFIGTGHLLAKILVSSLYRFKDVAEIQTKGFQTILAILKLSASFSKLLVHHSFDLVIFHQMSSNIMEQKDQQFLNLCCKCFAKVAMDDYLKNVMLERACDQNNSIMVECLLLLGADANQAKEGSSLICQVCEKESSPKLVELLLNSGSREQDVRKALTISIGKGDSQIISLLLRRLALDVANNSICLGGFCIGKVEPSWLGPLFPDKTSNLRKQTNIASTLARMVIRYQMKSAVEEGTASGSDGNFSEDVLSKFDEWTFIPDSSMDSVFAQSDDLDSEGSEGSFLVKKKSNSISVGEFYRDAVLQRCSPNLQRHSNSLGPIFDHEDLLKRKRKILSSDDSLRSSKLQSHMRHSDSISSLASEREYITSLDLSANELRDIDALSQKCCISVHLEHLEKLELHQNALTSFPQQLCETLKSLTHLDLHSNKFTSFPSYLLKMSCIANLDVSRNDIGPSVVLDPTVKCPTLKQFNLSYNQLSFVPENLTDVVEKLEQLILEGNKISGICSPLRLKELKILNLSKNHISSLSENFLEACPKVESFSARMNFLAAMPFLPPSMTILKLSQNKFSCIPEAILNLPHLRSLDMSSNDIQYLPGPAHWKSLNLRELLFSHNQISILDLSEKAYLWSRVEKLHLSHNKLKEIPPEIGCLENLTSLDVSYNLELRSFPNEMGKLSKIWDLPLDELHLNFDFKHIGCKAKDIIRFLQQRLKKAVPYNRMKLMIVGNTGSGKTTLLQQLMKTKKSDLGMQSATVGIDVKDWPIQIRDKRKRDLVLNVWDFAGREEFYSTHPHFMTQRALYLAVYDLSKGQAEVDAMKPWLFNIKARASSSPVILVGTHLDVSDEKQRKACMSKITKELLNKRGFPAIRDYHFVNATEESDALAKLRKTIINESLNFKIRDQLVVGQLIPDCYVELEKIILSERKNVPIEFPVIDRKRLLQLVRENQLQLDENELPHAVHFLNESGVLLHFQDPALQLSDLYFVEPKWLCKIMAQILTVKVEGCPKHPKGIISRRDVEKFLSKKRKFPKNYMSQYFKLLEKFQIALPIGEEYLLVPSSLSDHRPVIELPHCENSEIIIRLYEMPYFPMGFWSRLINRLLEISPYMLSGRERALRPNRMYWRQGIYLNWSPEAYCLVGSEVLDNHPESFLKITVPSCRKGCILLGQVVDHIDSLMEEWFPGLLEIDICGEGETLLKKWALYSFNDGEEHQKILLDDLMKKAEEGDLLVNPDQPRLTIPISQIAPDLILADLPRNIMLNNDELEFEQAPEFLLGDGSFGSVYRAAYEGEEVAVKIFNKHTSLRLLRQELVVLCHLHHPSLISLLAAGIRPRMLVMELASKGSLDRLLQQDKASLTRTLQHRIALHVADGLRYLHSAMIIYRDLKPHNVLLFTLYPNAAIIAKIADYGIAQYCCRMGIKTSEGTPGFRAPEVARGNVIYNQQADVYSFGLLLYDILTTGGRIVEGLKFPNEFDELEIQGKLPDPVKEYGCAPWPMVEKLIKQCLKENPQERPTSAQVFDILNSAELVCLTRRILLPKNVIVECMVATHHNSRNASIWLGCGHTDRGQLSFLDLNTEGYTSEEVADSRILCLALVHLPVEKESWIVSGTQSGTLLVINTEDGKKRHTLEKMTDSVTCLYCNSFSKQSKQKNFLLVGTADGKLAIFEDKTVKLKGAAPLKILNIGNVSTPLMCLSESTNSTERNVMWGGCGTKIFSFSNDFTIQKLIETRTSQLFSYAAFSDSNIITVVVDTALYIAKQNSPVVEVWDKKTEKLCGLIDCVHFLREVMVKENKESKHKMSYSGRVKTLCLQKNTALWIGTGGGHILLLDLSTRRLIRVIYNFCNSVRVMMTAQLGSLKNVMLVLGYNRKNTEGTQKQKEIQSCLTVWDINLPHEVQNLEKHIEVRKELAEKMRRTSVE

Chain of BACE1 (P56817 46-501): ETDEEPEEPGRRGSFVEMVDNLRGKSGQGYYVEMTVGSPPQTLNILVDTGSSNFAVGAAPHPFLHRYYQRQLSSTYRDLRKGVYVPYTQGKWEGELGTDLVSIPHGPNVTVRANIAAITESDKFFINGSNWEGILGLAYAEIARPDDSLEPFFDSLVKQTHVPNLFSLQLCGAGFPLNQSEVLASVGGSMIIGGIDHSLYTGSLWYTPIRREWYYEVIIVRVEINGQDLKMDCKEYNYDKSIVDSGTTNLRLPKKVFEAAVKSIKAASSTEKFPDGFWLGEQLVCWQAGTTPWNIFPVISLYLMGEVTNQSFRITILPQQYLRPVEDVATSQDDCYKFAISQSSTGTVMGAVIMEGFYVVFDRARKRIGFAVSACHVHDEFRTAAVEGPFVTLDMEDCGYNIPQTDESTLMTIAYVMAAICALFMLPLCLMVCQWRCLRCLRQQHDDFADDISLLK

Solubility in the conditions of the PAMPA experiment (PAMPA-BBB test): insoluble
Triazole formation from building blocks in presence of BACE1 (BACE1): observed
melting point: 280 to 282 °C (dec.)
IC50 (LRRK2): 1.83 µM
SMILES: O=C(Nc1nc2ccccc2s1)c1ccc(Cn2cc(COc3ccc(C(=O)Nc4nc5ccccc5s4)cc3)nn2)cc1 [compound 8]
Aβ40 levels in cellular lysates (SK-APP cells): reducing
Aβ40 levels in extracellular fluid (SK-APP cells): reducing
Aβ42 levels in extracellular fluid (SK-APP cells): reducing
